According to ChEMBL document CHEMBL1201862, “PubChem BioAssay data set” (2004):
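Test compounds were applied to cells in 96-well plates for 48 hours at 5 doses. Here, GI50 denotes the concentration required for 50% inhibition of growth.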 Calls of active or inactive are those of the source. Rule as the data show it: active = GI50 up to about 1.1 µM and inactive = higher.

What was measured:
Assay in all cases: NCI anticancer screen, dose series, 48 h
ACHN = tested on: ACHN
HT-29 = tested on: HT-29
KM-20L2 = tested on: KM-20L2
KM12 = tested on: KM12
MOLT-4 = tested on: MOLT-4
Malme-3M = tested on: Malme-3M
NCI-H226 = tested on: NCI-H226
NCI-H522 = tested on: NCI-H522
OVCAR-4 = tested on: OVCAR-4
OVCAR-8 = tested on: OVCAR-8
SF-268 = tested on: SF-268
SF-539 = tested on: SF-539
SK-MEL-2 = tested on: SK-MEL-2
SW-620 = tested on: SW-620
UACC-257 = tested on: UACC-257
UACC-62 = tested on: UACC-62
DU-145 = tested on: DU-145
Hs-578T = tested on: Hs-578T
NCI/ADR-RES = tested on: NCI/ADR-RES
PC-3 = tested on: PC-3

Row | SMILES | GI50 (ACHN) | GI50 (HT-29) | GI50 (KM-20L2) | GI50 (KM12) | GI50 (MOLT-4) | GI50 (Malme-3M) | GI50 (NCI-H226) | GI50 (NCI-H522) | GI50 (OVCAR-4) | GI50 (OVCAR-8) | GI50 (SF-268) | GI50 (SF-539) | GI50 (SK-MEL-2) | GI50 (SW-620) | GI50 (UACC-257) | GI50 (UACC-62) | GI50 (DU-145) | GI50 (Hs-578T) | GI50 (NCI/ADR-RES) | GI50 (PC-3)
1 | CCOC(=N)CC(=O)c1ccccc1 | > 100 µM (inactive) | > 100 µM (inactive) | > 100 µM (inactive) | > 100 µM (inactive) | > 100 µM (inactive) | > 100 µM (inactive) | > 100 µM (inactive) | > 100 µM (inactive) | > 100 µM (inactive) | > 100 µM (inactive) | > 100 µM (inactive) | > 100 µM (inactive) | > 100 µM (inactive) | > 100 µM (inactive) | > 100 µM (inactive) | > 100 µM (inactive) |  |  |  | 
2 | C=C(CS(=O)(=O)c1ccccc1)[P+](c1ccccc1)(c1ccccc1)c1ccccc1 | 21.7 µM (inactive) | 18.2 µM (inactive) | 17.5 µM (inactive) | 14.7 µM (inactive) | 16.6 µM (inactive) | 12.1 µM (inactive) | 16.4 µM (inactive) | 18.6 µM (inactive) | 37.9 µM (inactive) | 14.8 µM (inactive) | 2.72 µM (inactive) | 23.5 µM (inactive) | > 100 µM (inactive) | 18.2 µM (inactive) | 8.93 µM (inactive) | 22.9 µM (inactive) |  |  |  | 
3 | Cc1cc(C(=C2C=CC(=N)C=C2)c2ccc(N)cc2)ccc1N [FUCHSIN, BASIC] | 8.09 µM (inactive) | 3.66 µM (inactive) | 3.77 µM (inactive) | 2.34 µM (inactive) | 5.51 µM (inactive) | 2.65 µM (inactive) | 3.19 µM (inactive) | 2.84 µM (inactive) | 8.43 µM (inactive) | 1.35 µM (inactive) | 0.556 µM (active) | 0.706 µM (active) | 3.18 µM (inactive) | 3.67 µM (inactive) | 3.65 µM (inactive) | 4.45 µM (inactive) | 5.4 µM (inactive) | 0.494 µM (active) | 11.7 µM (inactive) | 3.48 µM (inactive)
4 | COc1cc([C@@H]2c3cc4c(cc3[C@@H](NC(=O)c3ccc(N)cc3)C3COC(=O)[C@@H]32)OCO4)cc(OC)c1O (stereo not given in full) | 0.597 µM (active) | 2.41 µM (inactive) | 1.73 µM (inactive) | 2.65 µM (inactive) | 0.0375 µM (active) | 2.51 µM (inactive) | 0.881 µM (active) | 1.75 µM (inactive) | 93.8 µM (inactive) | 2.53 µM (inactive) | 2.41 µM (inactive) | 1.02 µM (active) | 7.74 µM (inactive) | 1.03 µM (active) | 9.16 µM (inactive) | 1.19 µM (inactive) |  |  |  | 
5 | COc1ccc(NC(=O)c2cc(OC)cc(OC)c2)cc1 | 57.4 µM (inactive) | 4.49 µM (inactive) | 4.81 µM (inactive) | 4.49 µM (inactive) | 14.8 µM (inactive) | 36.6 µM (inactive) | 31.7 µM (inactive) | 13.6 µM (inactive) | > 100 µM (inactive) | 80.5 µM (inactive) | 36.7 µM (inactive) | 25.1 µM (inactive) | 25.9 µM (inactive) | 7.01 µM (inactive) | 98.4 µM (inactive) | 11.3 µM (inactive) |  |  |  | 
6 | COc1ccc2nc(NC(=O)C(=O)CC(=O)c3ccc(Cl)cc3)sc2c1 | > 100 µM (inactive) | > 100 µM (inactive) | 71.3 µM (inactive) | 35.1 µM (inactive) | > 100 µM (inactive) | > 100 µM (inactive) | 96.2 µM (inactive) | 92.3 µM (inactive) | 20.9 µM (inactive) | > 100 µM (inactive) | 85.3 µM (inactive) | 17.3 µM (inactive) | > 100 µM (inactive) | > 100 µM (inactive) | > 100 µM (inactive) | 68.7 µM (inactive) |  |  |  | 
7 | O=C(NC(=O)c1ccccc1[N+](=O)[O-])Nc1ccc(Oc2ncc(Cl)cn2)c(C(F)(F)F)c1 | 0.0789 µM (active) | 0.0105 µM (active) | < 0.0125 µM (active) | < 0.01 µM (active) | 0.047 µM (active) | < 0.01 µM (active) | 0.0191 µM (active) | < 0.01 µM (active) | 1.6 µM (inactive) | 0.0236 µM (active) | 0.0733 µM (active) | 0.0109 µM (active) | < 0.01 µM (active) | < 0.01 µM (active) | < 0.01 µM (active) | < 0.01 µM (active) | 0.0366 µM (active) | < 0.01 µM (active) | < 0.01 µM (active) | < 0.01 µM (active)
8 | CCC(C)C(=O)O[C@H]1C(=O)O[C@@H]2C[C@H]3C(C)=CC(=O)[C@@H](O)[C@]3(C)[C@H]3[C@@H](O)[C@H](O)[C@@]4(C)OC[C@]32[C@@H]14 (stereo not given in full) | < 0.0156 µM (active) | < 0.0146 µM (active) | 0.0468 µM (active) | < 0.0161 µM (active) | 0.0112 µM (active) | < 0.0152 µM (active) | < 0.0157 µM (active) | 0.0147 µM (active) | < 0.01 µM (active) | < 0.0155 µM (active) | < 0.0164 µM (active) | < 0.0176 µM (active) | < 0.0252 µM (active) | < 0.0162 µM (active) | < 0.01 µM (active) | < 0.019 µM (active) | < 0.01 µM (active) | < 0.01 µM (active) | < 0.0334 µM (active) | < 0.01 µM (active)
9 | CC(C)=CC(=O)C1c2cccc(O)c2C(=O)c2c(O)cc(C)cc21 (stereo not given) | 2.12 µM (inactive) | 6.97 µM (inactive) | 4.86 µM (inactive) | 1.63 µM (inactive) | 4.23 µM (inactive) | 2.76 µM (inactive) | 2.24 µM (inactive) | 2 µM (inactive) | 2.13 µM (inactive) | 2.81 µM (inactive) | 2.12 µM (inactive) | 1.56 µM (inactive) | 1.98 µM (inactive) | 3.33 µM (inactive) | 2.88 µM (inactive) |  |  |  |  | 
10 | N#Cc1ccc(Oc2ccccc2)cc1C#N | > 100 µM (inactive) | 53.2 µM (inactive) | > 100 µM (inactive) | > 100 µM (inactive) | 59.3 µM (inactive) | > 100 µM (inactive) | > 100 µM (inactive) | 23.4 µM (inactive) | 96.2 µM (inactive) | > 100 µM (inactive) | > 100 µM (inactive) | > 100 µM (inactive) | 82.4 µM (inactive) |  | > 100 µM (inactive) | > 100 µM (inactive) |  |  |  | 
